Test results taken from BindingDB's records for doi:10.1021/acschembio.6b00357 (Uppsala University, 2016).

Columns and labels:
Assay in all cases: Radioligand Binding Assay
Adenosine receptor A3 = target: T1, Adenosine receptor A3 (Homo sapiens, UniProt P0DMS8)
T1 sequence (P0DMS8 whole entry): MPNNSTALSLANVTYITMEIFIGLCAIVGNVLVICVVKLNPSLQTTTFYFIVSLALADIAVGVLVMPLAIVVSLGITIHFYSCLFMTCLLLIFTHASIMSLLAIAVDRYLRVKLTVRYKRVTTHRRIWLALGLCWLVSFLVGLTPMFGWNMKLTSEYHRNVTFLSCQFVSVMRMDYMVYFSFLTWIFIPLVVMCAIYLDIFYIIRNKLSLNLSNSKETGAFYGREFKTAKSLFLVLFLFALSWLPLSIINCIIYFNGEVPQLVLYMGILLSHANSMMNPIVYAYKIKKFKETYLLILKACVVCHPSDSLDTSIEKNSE
Procedure: (§1) Nonspecific binding was determined using adenosine-′-Nethyluronamideat 10 μM concentration.

Adenosine receptor A1 = target: T2, Adenosine receptor A1 (Homo sapiens, UniProt P30542)
T2 sequence (P30542 whole entry): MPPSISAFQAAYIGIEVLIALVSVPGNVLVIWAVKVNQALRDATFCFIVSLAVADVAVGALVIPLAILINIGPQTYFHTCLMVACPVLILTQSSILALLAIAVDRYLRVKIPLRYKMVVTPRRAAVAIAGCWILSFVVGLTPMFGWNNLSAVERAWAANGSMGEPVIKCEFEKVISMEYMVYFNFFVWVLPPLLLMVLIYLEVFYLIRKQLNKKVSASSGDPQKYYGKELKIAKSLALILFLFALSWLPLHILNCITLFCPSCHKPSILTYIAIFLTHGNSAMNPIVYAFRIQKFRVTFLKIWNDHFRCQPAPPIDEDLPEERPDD
Procedure: as §1

Adenosine receptor A2a = Adenosine receptor A2a (Homo sapiens, UniProt P29274)
Procedure: as §1

Sequence of Adenosine receptor A2a (P29274 whole entry): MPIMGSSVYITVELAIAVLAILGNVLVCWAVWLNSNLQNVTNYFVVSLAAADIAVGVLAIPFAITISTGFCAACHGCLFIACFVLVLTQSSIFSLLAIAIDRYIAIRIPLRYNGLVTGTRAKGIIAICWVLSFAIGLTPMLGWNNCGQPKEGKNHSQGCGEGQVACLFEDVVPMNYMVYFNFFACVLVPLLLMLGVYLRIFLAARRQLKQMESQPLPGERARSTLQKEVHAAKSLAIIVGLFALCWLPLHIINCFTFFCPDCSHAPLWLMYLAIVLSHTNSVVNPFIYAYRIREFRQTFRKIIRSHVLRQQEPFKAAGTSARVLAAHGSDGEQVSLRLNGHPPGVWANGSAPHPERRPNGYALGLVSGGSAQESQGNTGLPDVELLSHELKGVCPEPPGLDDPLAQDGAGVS

Structure (SMILES) | Ki (Adenosine receptor A3) | Ki (Adenosine receptor A1) | Ki (Adenosine receptor A2a)
Nc1ccnc2c1ncn2[C@@H]1O[C@H](CO)[C@@H](O)[C@H]1O [1-DEAZA-ADENOSINE] | 583 nM | 84 nM | 645 nM
Nc1cccc2c1ncn2[C@@H]1O[C@H](CO)[C@@H](O)[C@H]1O [Adenosine receptor agonist, 7] | 823 nM | – | –
Nc1nc(=O)[nH]c2c1ncn2[C@@H]1O[C@H](CO)[C@@H](O)[C@H]1O [Adenosine receptor agonist, 9] | 348 nM | 467 nM | 495 nM
Nc1nccc2c1ncn2[C@@H]1O[C@H](CO)[C@@H](O)[C@H]1O [CAS_6736-58-9] | – | 461 nM | –

Second part, led by results:

Ki (Adenosine receptor A3) | Ki (Adenosine receptor A1) | Structure (SMILES) | Ki (Adenosine receptor A2a)
8020 nM | – | Cc1cn([C@@H]2O[C@H](CO)[C@@H](O)[C@H]2O)c(=O)nc1N [Adenosine receptor agonist, 13] | –
557 nM | 359 nM | Nc1ncn([C@@H]2O[C@H](CO)[C@@H](O)[C@H]2O)c(=O)c1Cl [Adenosine receptor agonist, 14] | –
